The results in this text go back to ChEMBL document CHEMBL2311477, “Alpha-heteroatom derivatized analogues of 3-(acetylhydroxyamino)propyl phosphonic acid (FR900098) as antimalarials” (J Med Chem, 2013).

For orientation: IC50 means the point on the concentration scale where inhibition reaches its midpoint. The term inhibition denotes the percentage by which the read-out fell short of the control.

The subject of experiment [1] is Plasmodium falciparum. As to the kind of experiment: Antimalarial activity against chloroquine-sensitive Plasmodium falciparum 3D7 assessed as parasite growth inhibition. In kind it is functional, organism-based.
For the next experiment, the system named is Escherichia coli. As to the kind of experiment: Inhibition of Escherichia coli DXR assessed as reduction of NADPH in NADP+ at 100 nM by spectrophotometric analysis.
Experiment [2] relates to Plasmodium falciparum. As to the kind of experiment: Antimalarial activity against Plasmodium falciparum K1 infected in human erythrocytes assessed as parasite growth inhibition. The format is functional, organism-based.
The nature of experiment [3]: Inhibition of Escherichia coli DXR assessed as reduction of NADPH in NADP+ by spectrophotometric analysis.
Experiment [4] deals with Plasmodium falciparum. Put plainly: Antimalarial activity against Plasmodium falciparum 3D7 assessed as parasite growth inhibition. The format is functional, organism-based.

As to `CC(=O)N(O)Cc1ccccc1P(OCOC(=O)C(C)(C)C)OCOC(=O)C(C)(C)C`, in the experiment with Plasmodium falciparum [1], the IC50 came to 50000 nM. Regarding `CC(=O)N(O)CCC(NC(=O)c1ccccc1)P(=O)(O)O` (racemic), in the experiment on Escherichia coli, the inhibition came out at 1.42%. Also, the IC50 in the experiment on Plasmodium falciparum [2] turned out to be 49000 nM. In the case of `CC(=O)N(O)CCC(N=[N+]=[N-])P(=O)(O)O` (racemic), the results for the concentration for half-maximal inhibition (IC50) (in the experiment with Plasmodium falciparum [2]; in experiment [3] (read-out: IC50)) were 1980 nM and 74.6 nM, respectively. For `CC(=O)N(O)CCC(O)P(=O)(O)O` (racemic) the same measures were 1820 nM and 52.2 nM.

In the case of `COC(CCN(O)C(C)=O)P(=O)(O)O` (racemic), the inhibition with Escherichia coli is 4.14%. For the same molecule, the IC50 in the experiment on Plasmodium falciparum [2] was found to be 4000 nM. For the molecule `CC(=O)N(O)CCC(Oc1ccccc1)P(=O)(O)O` (racemic), the IC50 was 13000 nM with Plasmodium falciparum [2] and “Not Active” in experiment [3].

In the case of `CC(=O)N(O)CCC(n1ccnn1)P(=O)(O)O` (racemic), in the experiment on Escherichia coli, the inhibition turned out to be 3.32%. Besides, the half-inhibitory concentration (IC50) in the experiment with Plasmodium falciparum [2] was 8960 nM. On to `CC(=O)N(O)CCC(n1cc(C(C)(C)C)nn1)P(=O)(O)O` (racemic), for which the IC50 in the experiment with Plasmodium falciparum [2] amounted to 7760 nM; in experiment [3] (read-out: IC50), 207 nM. With `CC(=O)N(O)CCC(n1cc(-c2ccccc2)nn1)P(=O)(O)O` (racemic), the IC50 in the experiment on Plasmodium falciparum [2] worked out at 2750 nM; in experiment [3] (read-out: IC50), 1130 nM. Turning to `CC(=O)N(O)CCC(NC(=O)Nc1ccccc1)P(=O)(O)O` (racemic), the inhibition in the experiment on Escherichia coli came to 1.3%. Further, in the experiment on Plasmodium falciparum [2], the IC50 is above 64000 nM. On to `O=CN(O)CCCP(=O)(O)O` [FOSMIDOMYCIN], for which the IC50 in the experiment on Plasmodium falciparum [4] was 1000 nM. On to `CC(=O)N(O)CCCP(=O)(O)O` [FR-900098], for which, in experiment [3] (read-out: IC50), the IC50 turned out to be 15.1 nM.
